“Also recorded” adds a separate entry of the source. Like-named read-outs stand apart in the source and are kept apart here.
Assay: Plasma pharmacokinetics, multiple-ascending-dose phase 1 study
Format: in vivo, human
Details: for RAUC (accumulation ratio for AUC) / RCmax (accumulation ratio for Cmax): day 10 vs day 1; for half-life / Cmax / Vd/F / Tmax / AUC(0-t) / AUC: human, plasma; for Vd/F: read-out: Vz/F,ss
Experimental: This study was conducted in full accordance with the Declaration of Helsinki and good clinical practices (GCP) at Quintiles Phase One Services in Overland Park, KS. Subjects were randomized in a 4:1 fashion (8 active:2 placebo) in each cohort to receive 200 mg, 400 mg, or 600 mg of CRS3123 or matching placebo every 12 h for 10 days (https://clinicaltrials.gov/ct2/show/NCT02106338). Subjects fasted 1 h before and 2 h after administration of the study product with a minimum of 8 oz. (240 ml) of water. Water and noncaffeinated drinks (except grapefruit juice) during the study were not restricted. Informed consent was obtained before any study-related procedures and clinical evaluations were performed. All 30 randomized subjects completed the study; 24 subjects received CRS3123 and 6 subjects received placebo. There were no premature withdrawals or discontinuations.
After a screening period of up to 35 days, eligible subjects were admitted to the study center for baseline evaluations on day −1. On the morning of day 1, eligible subjects were randomized to receive either the study drug or placebo orally every 12 h through day 10. Subjects remained inpatient at the study center until discharge on day 12. During the inpatient period, subjects were monitored for safety and pharmacokinetics (PK). Subjects were followed for 2 additional outpatient visits at the study center, on days 18 ± 2 and 29 ± 2.
PK method development, validation, and sample testing for plasma, feces, and urine were performed at KCAS, LLC (Shawnee, KS). Plasma, urine, and fecal concentrations of CRS3123 were determined by means of validated, sensitive, and specific high-performance liquid chromatography/tandem mass spectrometric (HPLC-MS/MS) assays. The lower limits of quantification of CRS3123 in plasma, feces, and urine were 10.0 ng/ml, 60.0 ng/g, and 100.0 ng/ml, respectively. The validated urine PK assay measured total free CSR3123. Since the majority of urinary CRS3123 was excreted as glucuronide conjugates ([32]), an enzymatic cleavage step using glucuronidase was added to the process to convert the glucuronide conjugates to free CRS3123 for the urine analysis.
The PK population consisted of all subjects who received active study drug (CRS3123) and had at least one measured CRS3123 concentration at a scheduled PK time point after the start of study drug administration.
Pharmacokinetic parameters for plasma were derived using noncompartmental methods with Phoenix WinNonlin version 6.4 (Pharsight Corporation, Certara L.P., Princeton, NJ). PK parameters for urine and feces were derived using SAS version 9.4 (SAS Institute, Inc., Cary, NC). All statistical calculations and reporting were performed using SAS version 9.4. Graphics were prepared with SAS version 9.4 or SigmaPlot 12.5 (Systat Software, Inc., San Jose, CA).
(i) Plasma PK. Plasma concentrations of CRS3123 throughout the 12-h dosing interval on PK days (day 1 and day 10) were summarized using descriptive statistics for each treatment.
One-way analysis of variance (ANOVA) models were used to assess any differences in appropriate PK parameters between adjacent dose levels following a single dose (day 1) and multiple doses (day 10). An ANOVA model on the log-transformed PK parameters (AUC0–12 and Cmax on day 1; AUC0–tau and Cmax on day 10) with fixed effect for treatment was performed separately for the single-dose analysis and multiple-dose analysis. From these models, the least-squares (LS) means together with 95% confidence intervals (Cis) for each dose and the LS means with corresponding 90% CIs for all adjacent dose pairs were calculated. Transformed back from the logarithmic scale, geometric LS means with corresponding 90% CIs were provided for each dose and adjacent dose ratios following both single and multiple dosing. PK accumulation was presented using descriptive statistics, and achievement of steady state was assessed graphically. […]

[1] = 200 mg Q12h, day 10, geometric mean
[2] = 400 mg Q12h, day 10, geometric mean
[3] = 600 mg Q12h, day 10, geometric mean

For `O=c1cc(NCCCN[C@@H]2CCOc3c(Br)cc(Br)cc32)[nH]c2ccsc12` [CRS3123], the “CL/F,ss” value [1] was 80.2 L/h, the “Plasma Cmin,ss” value [1] was 85.2 ng/mL and the “CL/F,ss” value (200 mg Q12h, day 10, median) was 82.0 L/h. For the same compound, the “Plasma Cmin,ss” value (200 mg Q12h, day 10, median) was 76.2 ng/mL, the “RAUC (accumulation ratio for AUC)” value (200 mg Q12h, geometric mean) was 1.61 and the “RCmax (accumulation ratio for Cmax)” value (200 mg Q12h, geometric mean) was 1.34. The “RAUC (accumulation ratio for AUC)” value (200 mg Q12h, median) was 1.54, the “RCmax (accumulation ratio for Cmax)” value (200 mg Q12h, median) was 1.11 and the “Plasma t1/2” value (200 mg Q12h oral, day 1, median (minimum, maximum)) was 3.0 (2.7, 3.7) h. The “Plasma t1/2,ss” value (200 mg Q12h oral, day 10, median (minimum, maximum)) was 4.6 (4.1, 7.0) h, the “CL/F,ss” value [2] was 125 L/h and the “Plasma Cmin,ss” value [2] was 112 ng/mL. The “CL/F,ss” value (400 mg Q12h, day 10, median) was 121 L/h, the “Plasma Cmin,ss” value (400 mg Q12h, day 10, median) was 122 ng/mL and the “RAUC (accumulation ratio for AUC)” value (400 mg Q12h, geometric mean) was 1.37. For the same compound, the “RCmax (accumulation ratio for Cmax)” value (400 mg Q12h, geometric mean) was 1.22, the “RAUC (accumulation ratio for AUC)” value (400 mg Q12h, median) was 1.21 and the “RCmax (accumulation ratio for Cmax)” value (400 mg Q12h, median) was 1.19. The “Plasma t1/2” value (400 mg Q12h oral, day 1, median (minimum, maximum)) was 3.6 (2.9, 4.3) h, the “Plasma t1/2,ss” value (400 mg Q12h oral, day 10, median (minimum, maximum)) was 5.0 (3.4, 7.7) h and the “CL/F,ss” value [3] was 149 L/h. The “Plasma Cmin,ss” value [3] was 160 ng/mL, the “CL/F,ss” value (600 mg Q12h, day 10, median) was 162 L/h and the “Plasma Cmin,ss” value (600 mg Q12h, day 10, median) was 161 ng/mL. The “RAUC (accumulation ratio for AUC)” value (600 mg Q12h, geometric mean) was 1.13, the “RCmax (accumulation ratio for Cmax)” value (600 mg Q12h, geometric mean) was 1.12 and the “RAUC (accumulation ratio for AUC)” value (600 mg Q12h, median) was 1.15. For the same compound, the “RCmax (accumulation ratio for Cmax)” value (600 mg Q12h, median) was 1.05, the “Plasma t1/2” value (600 mg Q12h oral, day 1, median (minimum, maximum)) was 2.9 (2.6, 4.0) h and the “systemic uptake after oral dosing” value (200 to 600 mg twice daily) was “limited but detectable systemic uptake”. The “dose proportionality of plasma exposure” value (200 to 600 mg, day 1 and day 10) was “less than dose proportional”, the “accumulation in plasma following multiple twice-daily dosing” value (10 days twice daily, trough concentration profiles) was “minimal accumulation; also recorded: essentially no accumulation” and the “power model slope (β) estimates for AUC and Cmax” value (day 1 and day 10, 200 to 600 mg) was “well below one”. The “increase of geometric mean AUC0–12 with a 3-fold increase in dose” value (first dose, 200 mg to 600 mg) was “approximately 2.3 fold”, the “increase of geometric mean Cmax with a 3-fold increase in dose” value (first dose, 200 mg to 600 mg) was about 1.9 fold and the half-life (oral, 200 mg, 200 mg Q12h, day 1, geometric mean, read-out: Plasma t1/2 (converted)) was 3.01 h. The Cmax (oral, 200 mg, 200 mg Q12h, day 1, median, read-out: Plasma Cmax) was 342 ng/mL, the half-life (oral, 200 mg, 200 mg Q12h, day 10, geometric mean, read-out: Plasma t1/2,ss (converted)) was 4.71 h and the Vd/F (oral, 200 mg, 200 mg Q12h, day 10, geometric mean) was 591 L. The Cmax (oral, 200 mg, 200 mg Q12h, day 10, median, read-out: Plasma Cmax,ss) was 492 ng/mL, the Vd/F (oral, 200 mg, 200 mg Q12h, day 10, median) was 578 L and the half-life (oral, 400 mg, 400 mg Q12h, day 1, geometric mean, read-out: Plasma t1/2 (converted)) was 3.53 h. The Cmax (oral, 400 mg, 400 mg Q12h, day 1, median, read-out: Plasma Cmax) was 504 ng/mL, the half-life (oral, 400 mg, 400 mg Q12h, day 10, geometric mean, read-out: Plasma t1/2,ss (converted)) was 5.19 h and the Vd/F (oral, 400 mg, 400 mg Q12h, day 10, geometric mean) was 937 L. It also gave a Cmax (oral, 400 mg, 400 mg Q12h, day 10, median, read-out: Plasma Cmax,ss) of 603 ng/mL, a Vd/F (oral, 400 mg, 400 mg Q12h, day 10, median) of 917 L and a half-life (oral, 600 mg, 600 mg Q12h, day 1, geometric mean, read-out: Plasma t1/2 (converted)) of 3.04 h. For the same compound, the Cmax (oral, 600 mg, 600 mg Q12h, day 1, median, read-out: Plasma Cmax) was 642 ng/mL, the half-life (oral, 600 mg, 600 mg Q12h, day 10, geometric mean, read-out: Plasma t1/2,ss (converted)) was 6.32 h and the Vd/F (oral, 600 mg, 600 mg Q12h, day 10, geometric mean) was 1400 L. It also gave a Cmax (oral, 600 mg, 600 mg Q12h, day 10, median, read-out: Plasma Cmax,ss) of 674 ng/mL, a Vd/F (oral, 600 mg, 600 mg Q12h, day 10, median) of 1410 L and a Tmax (oral, 600 mg, after first dose, day 1, range across the 3 dose groups (200, 400, 600 mg), read-out: median time to maximum concentration (Tmax)) of 7200 to 10800 s. The half-life (oral, after 10 days twice-daily, range across the three dose groups, read-out: geometric mean t1/2,ss) was 5 to 6 h, the Tmax (oral, after 10 days twice-daily, range across the three dose groups, read-out: median Tmax at steady state (Tmax,ss)) was 3600 to 7200 s and the half-life (oral, after first dose, day 1, range across the 3 dose groups, read-out: geometric mean half-life (t1/2)) was 3 to 4 h. For the same compound, the AUC(0-t) (oral, 200 mg Q12h, day 1, median, read-out: Plasma AUC(0-12)) was 1230 ng·h/mL, the AUC (oral, 200 mg Q12h, day 10, median, read-out: Plasma AUC(0-tau)) was 2470 ng·h/mL and the AUC(0-t) (oral, 400 mg Q12h, day 1, median, read-out: Plasma AUC(0-12)) was 2510 ng·h/mL. For the same compound, the AUC (oral, 400 mg Q12h, day 10, median, read-out: Plasma AUC(0-tau)) was 3310 ng·h/mL, the AUC(0-t) (oral, 600 mg Q12h, day 1, median, read-out: Plasma AUC(0-12)) was 3630 ng·h/mL and the AUC (oral, 600 mg Q12h, day 10, median, read-out: Plasma AUC(0-tau)) was 3740 ng·h/mL. It also gave a Cmax (po, 200 mg, 200 mg Q12h oral, day 1, geometric mean (%CV), read-out: Plasma Cmax) of 352 ng/mL, a Tmax (po, 200 mg, 200 mg Q12h oral, day 1, median (minimum, maximum), read-out: Plasma Tmax) of 7200 s and a half-life (po, 200 mg, 200 mg Q12h oral, day 1, median (minimum, maximum), read-out: Plasma t1/2 (converted)) of 2.96 h. For the same compound, the Cmax (po, 200 mg, 200 mg Q12h oral, day 10, geometric mean (%CV), read-out: Plasma Cmax,ss) was 470 ng/mL, the Tmax (po, 200 mg, 200 mg Q12h oral, day 10, median (minimum, maximum), read-out: Plasma Tmax,ss) was 5400 s and the half-life (po, 200 mg, 200 mg Q12h oral, day 10, median (minimum, maximum), read-out: Plasma t1/2,ss (converted)) was 4.59 h. It also gave a Cmax (po, 400 mg, 400 mg Q12h oral, day 1, geometric mean (%CV), read-out: Plasma Cmax) of 507 ng/mL, a Tmax (po, 400 mg, 400 mg Q12h oral, day 1, median (minimum, maximum), read-out: Plasma Tmax) of 10800 s and a half-life (po, 400 mg, 400 mg Q12h oral, day 1, median (minimum, maximum), read-out: Plasma t1/2 (converted)) of 3.61 h. It also gave a Cmax (po, 400 mg, 400 mg Q12h oral, day 10, geometric mean (%CV), read-out: Plasma Cmax,ss) of 615 ng/mL, a Tmax (po, 400 mg, 400 mg Q12h oral, day 10, median (minimum, maximum), read-out: Plasma Tmax,ss) of 7200 s and a half-life (po, 400 mg, 400 mg Q12h oral, day 10, median (minimum, maximum), read-out: Plasma t1/2,ss (converted)) of 5.01 h. For the same compound, the Cmax (po, 600 mg, 600 mg Q12h oral, day 1, geometric mean (%CV), read-out: Plasma Cmax) was 654 ng/mL, the Tmax (po, 600 mg, 600 mg Q12h oral, day 1, median (minimum, maximum), read-out: Plasma Tmax) was 7200 s and the half-life (po, 600 mg, 600 mg Q12h oral, day 1, median (minimum, maximum), read-out: Plasma t1/2 (converted)) was 2.85 h. The Cmax (po, 600 mg, 600 mg Q12h oral, day 10, geometric mean (%CV), read-out: Plasma Cmax,ss) was 731 ng/mL, the Tmax (po, 600 mg, 600 mg Q12h oral, day 10, median (minimum, maximum), read-out: Plasma Tmax,ss) was 3600 s and the half-life (po, 600 mg, 600 mg Q12h oral, day 10, median (minimum, maximum), read-out: Plasma t1/2,ss (converted)) was 6.1 h. It also gave an AUC(0-t) (200 mg Q12h oral, day 1, geometric mean (%CV), read-out: Plasma AUC (AUC0–12)) of 1550 ng·h/mL, an AUC (200 mg Q12h oral, day 10, geometric mean (%CV), read-out: Plasma AUC (AUC0–tau)) of 2500 ng·h/mL and an AUC(0-t) (400 mg Q12h oral, day 1, geometric mean (%CV), read-out: Plasma AUC (AUC0–12)) of 2340 ng·h/mL. It also gave an AUC (400 mg Q12h oral, day 10, geometric mean (%CV), read-out: Plasma AUC (AUC0–tau)) of 3200 ng·h/mL, an AUC(0-t) (600 mg Q12h oral, day 1, geometric mean (%CV), read-out: Plasma AUC (AUC0–12)) of 3560 ng·h/mL and an AUC (600 mg Q12h oral, day 10, geometric mean (%CV), read-out: Plasma AUC (AUC0–tau)) of 4030 ng·h/mL.
